What all share (assay): NCI-60 cell line screen, 48 h
Assay [1] relates to M14 melanoma.
The test system of assay [2] is NCI-H23 lung.
Assay [3] deals with KM12 colon.
For assay [4], the system named is HCC-2998 colon.
The test system of assay [5] is HS 578T breast.
Assay [6] has as its system EKVX NSCLC.
Assay [7] deals with T-47D breast.
For assay [8], the system named is A549 NSCLC.
Assay [9] concerns SW-620 colon.
For assay [10], the system named is TK-10 renal.

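In this assay, cells in 96-well plates receive the compound at five concentrations for 48 hours. Endpoints are linearly interpolated between the surrounding concentrations. Abbreviation: GI50, concentration required for 50% inhibition of growth. TGI: total growth inhibition.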

With `C=C1c2nc3ccccc3n2C=C(c2ccc(C)cc2)N1c1ccc(OC)cc1`, the TGI in assay [1] was more than 100 µM; in [2], more than 100 µM; in [3], 63.3 µM; in [4] it was more than 100 µM; in assay [5], more than 100 µM; in assay [6] it was more than 100 µM. For the same compound, the TGI in assay [7], in assay [8], in assay [9] and in assay [10] was more than 100 µM each time.
On to `O=C(O)C(Cc1ccccc1)NCc1c(O)ccc2c(-c3ccccc3)cc(=O)oc12` (stereo not given), for which the TGI in assay [1], in assay [2], in assay [3], in assay [4], in assay [5] and in assay [6] was more than 100 µM in each case. Moreover, the TGI in assay [7], in [8], in assay [9] and in assay [10] was more than 100 µM throughout.
As for `CCOC(=O)NC(=S)N(CC(=O)c1cc(OC)c(OC)c(OC)c1)c1ccc(Cl)cc1`, the GI50 in assay [1] was 36.7 µM; in [2], more than 100000 nM; in [3], more than 100000 nM; in [4] it was 33.4 µM; in assay [5] it was 96.4 µM; in [6] it was 62.4 µM. The GI50 was 23.5 µM in [7], 59.6 µM in assay [8], more than 100 µM in assay [9] and 36.9 µM in [10]. Also, the TGI in [1], in [2], in assay [3], in assay [4], in assay [5] and in [6] was more than 100 µM in each case. In addition, the TGI is 72.9 µM in assay [7], more than 100 µM in assay [8], more than 100 µM in assay [9] and more than 100 µM in assay [10].
Regarding `C[C@]12CC[C@H]3[C@@H](CC=C4C[C@@H](N5CCCC5)CC[C@@]43C)[C@@H]1C[C@H](N1CCCCC1)[C@@H]2O`, the TGI in assay [1] was 40.4 µM; in [2], more than 100 µM; in assay [3] it was more than 100 µM; in assay [4] it was more than 100 µM; in [5], more than 100 µM; in assay [6] it was more than 100 µM. In addition, the TGI in assay [7], in [8], in assay [9] and in [10] was more than 100 µM in each case.
As to `Cc1ccccc1NC(=O)O/N=C(\Cl)C(C)C`, the TGI in assay [1] was 12.1 µM; in [2], 32 µM; in assay [3], 36.2 µM; in [4], 31.5 µM; in assay [5], 58.5 µM; in [6], 4.94 µM. The TGI turned out to be 11.3 µM in assay [7], 36.8 µM in assay [8], 4.36 µM in assay [9] and 8.19 µM in assay [10].
On to `COC(=N)C1(C#N)NC(c2ccsc2)C(C#N)(C#N)NC1c1ccsc1` (stereo not given), for which the TGI in assay [1], in assay [2], in assay [3], in [4], in assay [5] and in [6] was more than 100 µM in each case. In addition, the TGI in [7], in assay [8], in assay [9] and in assay [10] was more than 100 µM in each case.
`COc1cc(CCNC2=CC(=O)c3nc[nH]c3C2=O)ccc1O`: the TGI in assay [1] amounted to 33.5 µM; in assay [2], 48.6 µM; in [3] it was 82.2 µM; in assay [4], 43 µM; in assay [5], 72.8 µM; in [6] it was 47.4 µM. Further, the TGI in assay [7] amounted to 73.2 µM; in assay [8], 68.3 µM; in assay [9], 58.6 µM; in assay [10] it was 87.5 µM.
Take `CC1=C(C)C(=O)C(C2=CC(=O)c3ccccc3C2=O)=C(C2=CC(=O)c3ccccc3C2=O)C1=O`: the TGI is more than 40.8 µM in assay [1]; 45.5 µM in [2]; 28.9 µM in assay [3]; 19.8 µM in assay [4]; more than 100 µM in assay [5]; more than 72 µM in assay [6]. Further, the TGI was 45.1 µM in assay [7], more than 100 µM in [8], more than 33.9 µM in assay [9] and more than 38.4 µM in assay [10].
As for `O=C1c2cc3c(cc2-c2c1c1cc(F)c(F)cc1c(=O)n2CCCn1ccnc1)OCO3`, the GI50 in [1] was 0.0101 µM; in [2], 20.4 nM; in assay [3], 46.9 nM; in [4] it was 0.195 µM; in assay [5], 1.89 µM; in [6], 0.687 µM. Moreover, the GI50 was less than 0.01 µM in assay [7], 0.018 µM in assay [8], less than 0.01 µM in [9] and 0.25 µM in assay [10]. The TGI in assay [1] was more than 100 µM; in assay [2], 0.29 µM; in [3] it was 14.7 µM; in assay [4], more than 100 µM; in assay [5], more than 100 µM; in assay [6] it was more than 100 µM. Also, the TGI was 0.0577 µM in assay [7], 1.32 µM in assay [8], more than 100 µM in assay [9] and more than 100 µM in [10].
As for `O=c1[nH]c(=O)n(COC(CO)CO)cc1-c1ccccc1`, the TGI in [1], in assay [2], in assay [3], in [4], in assay [5] and in [6] was more than 100 µM each time. The TGI in [7], in assay [8], in assay [9] and in assay [10] was more than 100 µM throughout.
As to `O=[N+]([O-])c1ccc(-n2nc3ccc4nonc4c3n2)cc1`, the TGI was more than 100 µM in [1]; more than 100 µM in [2]; more than 100 µM in assay [3]; more than 100 µM in [4]; 50.1 µM in [5]; more than 100 µM in assay [6]. The TGI in assay [7] is more than 100 µM; in assay [8], more than 100 µM; in assay [9], more than 100 µM; in [10] it was 39.9 µM.
